The record followed here is US11512090B2, “Muscarinic acetylcholine M1 receptor antagonists” (PIPELINE THERAPEUTICS, INC., priority 2018, dated 2022).

Where two headings read alike, the source gives them in different places. Bounds are passed on as bounds.

What all share (type): cell-based
For one assay, the target named is T1, human M1 receptor (Homo sapiens, UniProt P11229).
T1 sequence (P11229 1-460): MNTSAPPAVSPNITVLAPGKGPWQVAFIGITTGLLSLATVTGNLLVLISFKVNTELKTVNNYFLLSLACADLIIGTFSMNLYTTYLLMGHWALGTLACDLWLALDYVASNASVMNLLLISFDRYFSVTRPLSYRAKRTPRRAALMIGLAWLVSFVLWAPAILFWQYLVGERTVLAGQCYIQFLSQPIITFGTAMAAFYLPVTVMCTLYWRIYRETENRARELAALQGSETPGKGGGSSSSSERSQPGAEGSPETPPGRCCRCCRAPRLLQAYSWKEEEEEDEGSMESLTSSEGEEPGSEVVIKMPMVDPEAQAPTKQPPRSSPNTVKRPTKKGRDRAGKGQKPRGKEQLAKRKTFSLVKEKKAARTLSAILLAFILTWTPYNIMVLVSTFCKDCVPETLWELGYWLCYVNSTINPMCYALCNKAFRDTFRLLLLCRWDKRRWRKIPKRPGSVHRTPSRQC
The experiment in a line: In vitro functional assay of muscarinic acetylcholine receptor activity (aequorin calcium flux, antagonist mode vs EC80 acetylcholine), M1. On the procedure:
(§1) CHO-K1 cells stably expressing human M1 receptor with Aequorin (Perkin Elmer) were grown in F12 media, 10% FBS with 0.4 mg/mL geneticin and […]. Cells were grown to confluence and frozen down to be assayed at a later date. On the day of the experiment cells were thawed in a 37° C. water bath, resuspended in DMEM/HAM's F12 with HEPES (Invitrogen)+0.1% protease-free BSA (assay buffer), and spun down to remove freezing media. After centrifugation, supernatant was removed and 12 mL of assay buffer was added. Coelenterazine h (Promega) was added to the cells at a final concentration of 5 uM and incubated for 4 hours at room temperature in the dark. Compound master plate-96 deep well (Corning) were formatted in a 8-point DRC in assay buffer with 0.2% DMSO at a starting concentration of 60 uM (2×). After 4 hours of incubation, cells were plated at a concentration of 5×10^5 cells/well in 96 well white-walled, tissue culture-treated, clear-bottom plates (VWR). Compounds were added to the daughter plate, and cells plus compound were incubated at room temperature for 30 minutes in the dark.
(§2) Calcium flux was measured using the FlexStation 3 (Molecular Devices). To measure the antagonist dose-response, the EC80 of Acetylcholine was injected to the daughter plate using the automated compound transfer function of the Flex Station, and the increase in luminescence was measured over time. Antagonist activity was analyzed as a concentration dependent decrease in the EC80 acetylcholine response. Dose response curves were generated using Prism (GraphPad Software). The IC50 of the compounds was calculated from the dose response curve.
Background: Calcium flux is commonly read through the fluorescence of an indicator in the cells.

The target of the next assay is T2, M2 (Homo sapiens, UniProt P08172).
T2 sequence (P08172 1-466): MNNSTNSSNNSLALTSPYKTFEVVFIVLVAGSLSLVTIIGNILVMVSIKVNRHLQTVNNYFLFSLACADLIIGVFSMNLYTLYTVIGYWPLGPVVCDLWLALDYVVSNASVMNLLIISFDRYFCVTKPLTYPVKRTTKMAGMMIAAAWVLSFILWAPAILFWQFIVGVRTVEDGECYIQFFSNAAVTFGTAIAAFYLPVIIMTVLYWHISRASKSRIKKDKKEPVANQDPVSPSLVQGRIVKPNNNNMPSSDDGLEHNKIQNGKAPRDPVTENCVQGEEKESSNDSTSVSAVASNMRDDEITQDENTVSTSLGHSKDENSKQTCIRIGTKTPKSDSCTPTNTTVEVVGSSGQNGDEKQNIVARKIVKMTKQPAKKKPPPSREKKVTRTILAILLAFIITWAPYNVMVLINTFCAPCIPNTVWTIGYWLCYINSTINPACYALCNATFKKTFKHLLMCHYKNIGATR
Put plainly: In vitro functional assay of muscarinic acetylcholine receptor activity, M2. The following applies: antagonist IC50 at M2; read-out: M2 IC50. On the procedure:
[The procedure below names another target; the source lists this target under the same test.] as §1, §2

The next assay addresses M3 (Homo sapiens, UniProt P20309). The experiment in a line: In vitro functional assay of muscarinic acetylcholine receptor activity, M3. The conditions noted are these: antagonist IC50 at M3; read-out: M3 IC50. On the procedure: [The procedure below names another target; the source lists this target under the same test.] as §1, §2
Setting [1] is: CHO-K1 cells stably expressing human M1 receptor with Aequorin, decrease in EC80 acetylcholine response, read-out: M1 IC50.

For orientation: IC50 means the concentration that inhibits the measured activity by half.

M3, sequence (P20309 whole entry): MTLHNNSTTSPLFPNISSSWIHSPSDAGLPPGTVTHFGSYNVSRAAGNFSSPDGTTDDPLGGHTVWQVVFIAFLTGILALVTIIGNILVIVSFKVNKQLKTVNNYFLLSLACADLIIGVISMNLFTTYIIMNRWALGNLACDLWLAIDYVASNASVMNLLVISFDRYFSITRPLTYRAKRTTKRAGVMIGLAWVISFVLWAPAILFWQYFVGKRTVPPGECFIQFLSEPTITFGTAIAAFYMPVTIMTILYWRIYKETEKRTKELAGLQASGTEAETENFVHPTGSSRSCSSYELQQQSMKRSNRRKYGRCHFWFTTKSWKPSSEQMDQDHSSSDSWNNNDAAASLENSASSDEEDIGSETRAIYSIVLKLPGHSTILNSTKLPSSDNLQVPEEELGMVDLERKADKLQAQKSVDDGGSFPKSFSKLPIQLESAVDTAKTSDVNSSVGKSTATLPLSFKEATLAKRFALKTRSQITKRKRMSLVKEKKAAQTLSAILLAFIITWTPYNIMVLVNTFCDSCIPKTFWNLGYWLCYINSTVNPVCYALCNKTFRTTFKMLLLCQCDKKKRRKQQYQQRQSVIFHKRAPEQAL

With `Cc1cc(F)cnc1N1C[C@H]2C[C@@H]1CN2C(=O)CCCc1cccc2ncccc12` (racemic) [Example 53, rac-1-((1R,4R)-5-(5-fluoro-3-methylpyridin-2-yl)-2,5-diazabicyclo[2.2.1]heptan-2-yl)-4-(quinolin-5-yl)butan-1-one], the IC50 was 1000 to 10000 nM at human M1 receptor (setting [1]), 1000 to 10000 nM at M2 and over 10000 nM at M3.
On to `O=C(CCCc1cccc2ncccc12)N1C[C@H]2C[C@@H]1CN2c1ccc(F)cn1` (racemic) [Example 54, rac-1-((1R,4R)-5-(5-fluoropyridin-2-yl)-2,5-diazabicyclo[2.2.1]heptan-2-yl)-4-(quinolin-5-yl)butan-1-one], for which the results for the IC50 at human M1 receptor (setting [1]), at M2 and at M3 were 100 to 1000 nM, 1000 to 10000 nM and over 10000 nM, respectively.
`Cc1cc(F)cnc1N1CCN(C(=O)CCCc2cccc3ncccc23)[C@@H](C)C1` [Example 6, 1-[(2S)-4-(5-fluoro-3-methylpyridin-2-yl)-2-methylpiperazin-1-yl]-4-(quinolin-5-yl)butan-1-one]: the IC50 on M2 and on M3 was 1000 to 10000 nM in each case.
`Cc1cc(F)cnc1N1CCN(C(=O)CCCc2cccc3nc(N)sc23)[C@@H](C)C1` [Example 20, 4-(2-amino-1,3-benzothiazol-7-yl)-1-[(2S)-4-(5-fluoro-3-methylpyridin-2-yl)-2-methylpiperazin-1-yl]butan-1-one]: the IC50 on M2 and on M3 was 1000 to 10000 nM in each case.
Take `N#Cc1ccc(N2C3CCC2CN(C(=O)CCNCc2c(F)ccc4ncnn24)C3)nc1` [Example 41, 6-(3-{3-[({6-fluoro-[1,2,4]triazolo[1,5-a]pyridin-5-yl}methyl)amino]propanoyl}-3,8-diazabicyclo[3.2.1]octan-8-yl)pyridine-3-carbonitrile]: the IC50 on human M1 receptor is under 100 nM.
On to `O=C(CCCc1cccc2ncccc12)N1CCN(c2ccc(F)cn2)CC1` [Example 51, 1-(4-(5-fluoropyridin-2-yl)piperazin-1-yl)-4-(quinolin-5-yl)butan-1-one], for which the IC50 at M2 is 1000 to 10000 nM; on M3, over 10000 nM.
For `CC1CN(c2ccc(F)cn2)CCN1C(=O)CCCc1cccc2ncccc12` (centres unmarked) [Example 58, 1-(4-(5-fluoropyridin-2-yl)-2-methylpiperazin-1-yl)-4-(quinolin-5-yl)butan-1-one], in that order: 1000 to 10000 nM and 1000 to 10000 nM.
The corresponding values for `Cc1cc(F)cnc1N1CCN(C(=O)CCCc2cccc3ncccc23)C(C)C1` (centres unmarked) [Example 59, 1-(4-(5-fluoro-3-methylpyridin-2-yl)-2-methylpiperazin-1-yl)-4-(quinolin-5-yl)butan-1-one] are under 100 nM and 100 to 1000 nM.
For `CC1CN(C(=O)CCCc2cccc3ncccc23)CCN1c1ccc(F)cn1` (centres unmarked) [Example 61, 1-(4-(5-fluoropyridin-2-yl)-3-methylpiperazin-1-yl)-4-(quinolin-5-yl)butan-1-one], in that order: 1000 to 10000 nM and 1000 to 10000 nM.
`Cc1cc(F)cnc1N1CCN(C(=O)CCCc2cccc3ncccc23)CC1C` (centres unmarked) [Example 62, 1-(4-(5-fluoro-3-methylpyridin-2-yl)-3-methylpiperazin-1-yl)-4-(quinolin-5-yl)butan-1-one]: the IC50 at M2 fell in the range of 100 to 1000 nM; at M3, 1000 to 10000 nM.
On to `Cc1cc(F)cnc1N1CCN(C(=O)CCCc2cccc3ncccc23)[C@H](C)C1` [Example 66, (R)-1-(4-(5-fluoro-3-methylpyridin-2-yl)-2-methylpiperazin-1-yl)-4-(quinolin-5-yl)butan-1-one], for which the IC50 at M2 and on M3 was 100 to 1000 nM each time.
Regarding `C[C@@H]1CN(c2ncc(F)cc2Cl)CCN1C(=O)CCCc1cccc2ncccc12` [Example 80, (R)-1-(4-(3-chloro-5-fluoropyridin-2-yl)-2-methylpiperazin-1-yl)-4-(quinolin-5-yl)butan-1-one], the IC50 on M2 and at M3 was 1000 to 10000 nM in each case.
Turning to `Cc1cc(F)cnc1N1CCN(C(=O)CCCc2cccc3ncoc23)[C@@H](C)C1` [Example 83, (S)-4-(benzo[d]oxazol-7-yl)-1-(4-(5-fluoro-3-methylpyridin-2-yl)-2-methylpiperazin-1-yl)butan-1-one], the IC50 on M2 and on M3 was 1000 to 10000 nM in each case.
As for `N#Cc1cc(N2CCN(C(=O)CCS(=O)(=O)c3cccc4ncsc34)CC2)ccn1` [Example 100, 4-(4-(3-(benzo[d]thiazol-7-ylsulfonyl)propanoyl)piperazin-1-yl)picolinonitrile], the results for the IC50 at M2 and at M3 were over 10000 nM and 1000 to 10000 nM, respectively.
On to `O=C(CCNCc1cccc2ncsc12)N1CCN(c2ccc(C(F)(F)F)cn2)CC1` [Example 119, 3-{[(1,3-benzothiazol-7-yl)methyl)amino}-1-{4-[5-(trifluoromethyl)pyridin-2-yl]piperazin-1-yl}propan-1-one], for which the values for the IC50 on human M1 receptor (setting [1]) and on M3 were 1000 to 10000 nM and over 10000 nM, respectively.
As for `CC1CN(C(=O)CCS(=O)(=O)c2cccc3ncsc23)CC(C)N1c1ccc(C#N)cn1` (centres unmarked) [Example 128, 6-{4-[3-(1,3-benzothiazole-7-sulfonyl)propanoyl]-2,6-dimethylpiperazin-1-yl}pyridine-3-carbonitrile], the half-inhibitory concentration (IC50) at M2 and at M3 was 1000 to 10000 nM throughout.
As for `CC1CN(c2ccc(C#N)cn2)CC(C)N1C(=O)CCS(=O)(=O)c1cccc2ncsc12` (centres unmarked) [Example 134, 6-{4-[3-(1,3-benzothiazole-7-sulfonyl)propanoyl]-3,5-dimethylpiperazin-1-yl}pyridine-3-carbonitrile], the IC50 at M2 and on M3 was over 10000 nM throughout.
`Cc1ccc(N2C3CCC2CN(C(=O)CCOCc2cccn4ncnc24)C3)nn1` [Example 189, 1-[8-(6-methylpyridazin-3-yl)-3,8-diazabicyclo[3.2.1]octan-3-yl]-3-({[1,2,4]triazolo[1,5-a]pyridin-8-yl}methoxy)propan-1-one]: on human M1 receptor, the half-inhibitory concentration (IC50) is 100 to 1000 nM.
As to `O=Cc1ccc(N2C3CCC2CN(C(=O)CCOCc2cccn4ncnc24)C3)nc1` [Example 190, 6-{3-[3-({[1,2,4]triazolo[1,5-a]pyridin-8-yl}methoxy)propanoyl]-3,8-diazabicyclo[3.2.1]octan-8-yl}pyridine-3-carbaldehyde], the IC50 on human M1 receptor was under 100 nM.
Consider `N#Cc1ccc(N2C3CCC2CN(C(=O)CCN(Cc2cccc4ncnn24)C2CCC2)C3)nc1` [Example 191, 6-(3-{3-[cyclobutyl({[1,2,4]triazolo[1,5-a]pyridin-5-yl}methyl)amino]propanoyl}-3,8-diazabicyclo[3.2.1]octan-8-yl)pyridine-3-carbonitrile], for which, at human M1 receptor (setting [1]), the IC50 was 1000 to 10000 nM.
Still for that read-out and setting: next, `O=C([C@H]1C[C@H](Nc2cccc3ncccc23)C1)N1CC2CCC(C1)N2c1ccncc1` [Example 196, N-[(1r,3r)-3-[8-(pyridin-4-yl)-3,8-diazabicyclo[3.2.1]octane-3-carbonyl]cyclobutyl]quinolin-5-amine]: 1000 to 10000 nM.
On to `N#Cc1ccc(N2C3CCC2CN(C(=O)CCCc2cccn4ncnc24)C3)nc1` [Example 198, 6-[3-(4-{[1,2,4]triazolo[1,5-a]pyridin-8-yl}butanoyl)-3,8-diazabicyclo[3.2.1]octan-8-yl]pyridine-3-carbonitrile], for which the IC50 at human M1 receptor was under 100 nM.
Same read-out and setting: next, `N#Cc1ccc(N2C3CCC2CN(C(=O)CCCc2cccc4ncnn24)C3)nc1` [Example 199, 6-[3-(4-{[1,2,4]triazolo[1,5-a]pyridin-5-yl}butanoyl)-3,8-diazabicyclo[3.2.1]octan-8-yl]pyridine-3-carbonitrile]: under 100 nM.
